Results published in patent EP0217101A1, “Substituted diphenyl ethers, process for their preparation and their use as herbicides” (HOECHST AKTIENGESELLSCHAFT, priority 1985, dated 1987).

Experiments:
Format in all cases: in vivo
Sinapis arvensis [1] = assay: Weed control post-emergence (greenhouse pot test); settings: post-emergence (three-leaf stage), 2,5 kg a.i./ha, visual rating after ca. 3-4 weeks
From the text: (§1) Die Schädigung der Unkrautpflanzen bzw. die Kulturpflanzenverträglichkeit wurde gemäß einem Schlüssel bonitiert, in dem die Wirksamkeit durch Wertzahlen von 0 - 5 ausgedrückt ist. Dabei bedeutet:
(§2) Samen bzw. Rhizomstüeke von mono- und dikotylen Unkräutern wurden in Plasstiktöpfen (φ= 9 cm) in sandigem Lehmboden ausgelegt, mit Erde abgedeckt und im Gewächshaus unter guten Wachstumsbedingungen angezogen. Drei Wochen nach der Aussaat wurden die Versuchspflanzen im Dreiblattstadium behandelt. Die als Spritzpulver bzw. als Eτulsionskonzentrate formulierten erfindungsgemäßen Verbindungen wurden in verschiedenen Dosierungen mit einer Wasseraufwandmenge von umgerechnet 600-800 l/ha auf die grünen Pflanzenteile gesprüht und nach ca. 3-4 Wochen Standzeit der Versuchspflanzen im Gewächshaus unter optimalen Wachstumsbedingungen (Temperatur 23°C +/- 1°C, relative Luftfeuchte 60-80 %) die Wirkung der Präparate optisch im Vergleich zu unbehandelten Kontrollen bonitiert.

Chrysanthemum segetum [2] = assay: Weed control post-emergence (greenhouse pot test); settings: post-emergence (three-leaf stage), 2,5 kg a.i./ha, visual rating after ca. 3-4 weeks
From the text: as §1, §2

Avena sativa [3] = assay: Weed control post-emergence (greenhouse pot test); settings: post-emergence (three-leaf stage), 2,5 kg a.i./ha, visual rating after ca. 3-4 weeks
From the text: as §1, §2

Echinochloa crus-galli [4] = assay: Weed control pre-emergence (greenhouse pot test); settings: pre-emergence, 2,5 kg a.i./ha, visual rating after 3-4 weeks
From the text: as §1
(§3) Samen bzw. Rhizomstücke von mono- und dikotylen Unkrautpflanzen wurden in Plasstiktöpfen (0 = 9 cm) in sandiger Lehmerde ausgelegt und mit Erde abgedeckt. Die in Form von benetzbaren Pulvern oder Emulsionskonzentraten formulierten erfindungsgemäßen Verbindungen wurden dann als wäßrige Suspensionen bzw. Emulsionen mit einer Wasseraufwandmenge von umgerechnet 600-800 1/ha in unterschiedlichen Dosierungen auf die Oberfläche der Abdeckerde appliziert. Nach der Behandlung wurden die Töpfe im Gewächshaus aufgestellt und unter guten Wachstumsbedingungen für die Unkrautpflanzen gehalten (Temperatur 23 plus/minus 1 Grad Celsius, relative Luftfeuchte 60-80 %).
(§4) Die optische Bonitur der Pflanzen- bzw. Auflaufschäden erfolgte nach dem Auflaufen der Versuchspflanzen nach einer Versuchszeit von 3-4 Wochen im Vergleich zu unbehandelten Kontrollen.

Stellaria media [5] = assay: Weed control pre-emergence (greenhouse pot test); settings: pre-emergence, 2,5 kg a.i./ha, visual rating after 3-4 weeks
From the text: as §1, §3, §4

Sinapis arvensis [6] = assay: Weed control pre-emergence (greenhouse pot test); settings: pre-emergence, 2,5 kg a.i./ha, visual rating after 3-4 weeks
From the text: as §1, §3, §4

Chrysanthemum segetum [7] = assay: Weed control pre-emergence (greenhouse pot test); settings: pre-emergence, 2,5 kg a.i./ha, visual rating after 3-4 weeks
From the text: as §1, §3, §4

Avena sativa [8] = assay: Weed control pre-emergence (greenhouse pot test); settings: pre-emergence, 2,5 kg a.i./ha, visual rating after 3-4 weeks
From the text: as §1, §3, §4

Echinochloa crus-galli [9] = assay: Weed control post-emergence (greenhouse pot test); set-up: key: 0: = ohne Wirkung bzw. Schaden; 1: = 0 - 20 % Wirkung bzw. Schaden; = 20 - 40 % Wirkung bzw. Schaden; 3: = 40 - 60 % Wirkung bzw. Schaden; 4: = 60 - 80 % Wirkung bzw. Schaden; 5: = 80 - 100 % Wirkung bzw. Schaden; settings: post-emergence (three-leaf stage), 2,5 kg a.i./ha, visual rating after ca. 3-4 weeks
From the text: as §1, §2

Stellaria media [10] = assay: Weed control post-emergence (greenhouse pot test); set-up: key: 0: = ohne Wirkung bzw. Schaden; 1: = 0 - 20 % Wirkung bzw. Schaden; = 20 - 40 % Wirkung bzw. Schaden; 3: = 40 - 60 % Wirkung bzw. Schaden; 4: = 60 - 80 % Wirkung bzw. Schaden; 5: = 80 - 100 % Wirkung bzw. Schaden; settings: post-emergence (three-leaf stage), 2,5 kg a.i./ha, visual rating after ca. 3-4 weeks
From the text: as §1, §2

## CCOC(OC(=O)c1cc(Oc2ccc(C(F)(F)F)cc2Cl)ccc1[N+](=O)[O-])C(Cl)(Cl)Cl (stereo not shown) [compound 5, 5-(2-Chlor-4-trifluormethylahenoxy)-2-nitrobenzoesäure-2,2,2-trichlor-1-ethoxyethylester]
Sinapis arvensis [1]
  Herbizide Wirkung im Nachauflauf SIA: 5 (= 80 - 100 % Wirkung bzw. Schaden)
Chrysanthemum segetum [2]
  Herbizide Wirkung im Nachauflauf CRS: 4 (= 60 - 80 % Wirkung bzw. Schaden)
Avena sativa [3]
  Herbizide Wirkung im Nachauflauf AS: 1 (= 0 - 20 % Wirkung bzw. Schaden)
Echinochloa crus-galli [4]
  Herbizide Wirkung im Vorauflauf ECG: 3 (= 40 - 60 % Wirkung bzw. Schaden)
Stellaria media [5]
  Herbizide Wirkung im Vorauflauf STM: 2 (= 20 - 40 % Wirkung bzw. Schaden)
Sinapis arvensis [6]
  Herbizide Wirkung im Vorauflauf SIA: 5 (= 80 - 100 % Wirkung bzw. Schaden)
Chrysanthemum segetum [7]
  Herbizide Wirkung im Vorauflauf CRS: 5 (= 80 - 100 % Wirkung bzw. Schaden)
Avena sativa [8]
  Herbizide Wirkung im Vorauflauf AS: 2 (= 20 - 40 % Wirkung bzw. Schaden)
Echinochloa crus-galli [9]
  Herbizide Wirkung im Nachauflauf ECG: 2 (= 20 - 40 % Wirkung bzw. Schaden)
Stellaria media [10]
  Herbizide Wirkung im Nachauflauf STM: 2 (= 20 - 40 % Wirkung bzw. Schaden)

## CCOC(=O)COC(OC(=O)c1cc(Oc2ccc(C(F)(F)F)cc2Cl)ccc1[N+](=O)[O-])C(Cl)(Cl)Cl (stereo not shown) [compound 22]
Sinapis arvensis [1]
  Herbizide Wirkung im Nachauflauf SIA: 5 (= 80 - 100 % Wirkung bzw. Schaden)
Chrysanthemum segetum [2]
  Herbizide Wirkung im Nachauflauf CRS: 5 (= 80 - 100 % Wirkung bzw. Schaden)
Avena sativa [3]
  Herbizide Wirkung im Nachauflauf AS: 5 (= 80 - 100 % Wirkung bzw. Schaden)
Echinochloa crus-galli [4]
  Herbizide Wirkung im Vorauflauf ECG: 5 (= 80 - 100 % Wirkung bzw. Schaden)
Stellaria media [5]
  Herbizide Wirkung im Vorauflauf STM: 2 (= 20 - 40 % Wirkung bzw. Schaden)
Sinapis arvensis [6]
  Herbizide Wirkung im Vorauflauf SIA: 5 (= 80 - 100 % Wirkung bzw. Schaden)
Chrysanthemum segetum [7]
  Herbizide Wirkung im Vorauflauf CRS: 5 (= 80 - 100 % Wirkung bzw. Schaden)
Avena sativa [8]
  Herbizide Wirkung im Vorauflauf AS: 4 (= 60 - 80 % Wirkung bzw. Schaden)
Echinochloa crus-galli [9]
  Herbizide Wirkung im Nachauflauf ECG: 5 (= 80 - 100 % Wirkung bzw. Schaden)
Stellaria media [10]
  Herbizide Wirkung im Nachauflauf STM: 3 (= 40 - 60 % Wirkung bzw. Schaden)

## N#CCCSCCOC(OC(=O)c1cc(Oc2ccc(C(F)(F)F)cc2Cl)ccc1[N+](=O)[O-])C(Cl)(Cl)Cl (stereo not shown) [compound 9]
Sinapis arvensis [1]
  Herbizide Wirkung im Nachauflauf SIA: 5 (= 80 - 100 % Wirkung bzw. Schaden)
Chrysanthemum segetum [2]
  Herbizide Wirkung im Nachauflauf CRS: 4 (= 60 - 80 % Wirkung bzw. Schaden)
Avena sativa [3]
  Herbizide Wirkung im Nachauflauf AS: 1 (= 0 - 20 % Wirkung bzw. Schaden)
Echinochloa crus-galli [4]
  Herbizide Wirkung im Vorauflauf ECG: 4 (= 60 - 80 % Wirkung bzw. Schaden)
Stellaria media [5]
  Herbizide Wirkung im Vorauflauf STM: 3 (= 40 - 60 % Wirkung bzw. Schaden)
Sinapis arvensis [6]
  Herbizide Wirkung im Vorauflauf SIA: 4 (= 60 - 80 % Wirkung bzw. Schaden)
Chrysanthemum segetum [7]
  Herbizide Wirkung im Vorauflauf CRS: 5 (= 80 - 100 % Wirkung bzw. Schaden)
Avena sativa [8]
  Herbizide Wirkung im Vorauflauf AS: 4 (= 60 - 80 % Wirkung bzw. Schaden)
Echinochloa crus-galli [9]
  Herbizide Wirkung im Nachauflauf ECG: 2 (= 20 - 40 % Wirkung bzw. Schaden)
Stellaria media [10]
  Herbizide Wirkung im Nachauflauf STM: 0

## Cc1ncsc1COC(OC(=O)c1cc(Oc2ccc(C(F)(F)F)cc2Cl)ccc1[N+](=O)[O-])C(Cl)(Cl)Cl (stereo not shown) [compound 37]
Sinapis arvensis [1]
  Herbizide Wirkung im Nachauflauf SIA: 5 (= 80 - 100 % Wirkung bzw. Schaden)
Chrysanthemum segetum [2]
  Herbizide Wirkung im Nachauflauf CRS: 4 (= 60 - 80 % Wirkung bzw. Schaden)
Avena sativa [3]
  Herbizide Wirkung im Nachauflauf AS: 2 (= 20 - 40 % Wirkung bzw. Schaden)
Echinochloa crus-galli [4]
  Herbizide Wirkung im Vorauflauf ECG: 2 (= 20 - 40 % Wirkung bzw. Schaden)
Stellaria media [5]
  Herbizide Wirkung im Vorauflauf STM: 1 (= 0 - 20 % Wirkung bzw. Schaden)
Sinapis arvensis [6]
  Herbizide Wirkung im Vorauflauf SIA: 4 (= 60 - 80 % Wirkung bzw. Schaden)
Chrysanthemum segetum [7]
  Herbizide Wirkung im Vorauflauf CRS: 3 (= 40 - 60 % Wirkung bzw. Schaden)
Avena sativa [8]
  Herbizide Wirkung im Vorauflauf AS: 2 (= 20 - 40 % Wirkung bzw. Schaden)
Echinochloa crus-galli [9]
  Herbizide Wirkung im Nachauflauf ECG: 2 (= 20 - 40 % Wirkung bzw. Schaden)
Stellaria media [10]
  Herbizide Wirkung im Nachauflauf STM: 0
